Laboratory results published in the NIST ThermoML archive (doi:10.1021/je5007696).
Several values for one entry are separate records, joined by “and”; a condition that tells them apart may be missing. Equal values may be shown once. ± gives the expanded uncertainty stated by the source.

Key:
[1] = xn = mol fraction of the nth substance listed; settings: 100 kPa, Liquid, x2 = 0; for viscosity: Concentric cylinders viscometry; for mass density: Vibrating tube method
[2] = refractive index (Na D-line) (dimensionless); xn = mol fraction of the nth substance listed; settings: 100 kPa, Liquid, Standard Abbe refractometry, x2 = 0
[3] = refractive index (Na D-line) (dimensionless); settings: 101.33 kPa, Liquid, Standard Abbe refractometry
[4] = Liquid; for viscosity: Concentric cylinders viscometry; for mass density: Vibrating tube method

SMILES	viscosity ([1]; 288.15 K) [mPa·s]	viscosity ([1]; 293.15 K) [mPa·s]	viscosity ([1]; 298.15 K) [mPa·s]	viscosity ([1]; 303.15 K) [mPa·s]	viscosity ([1]; 308.15 K) [mPa·s]	viscosity ([1]; 313.15 K) [mPa·s]	viscosity ([1]; 318.15 K) [mPa·s]	viscosity ([1]; 323.15 K) [mPa·s]	refractive index ([3]; 288.15 K)	refractive index ([3]; 293.15 K)	refractive index ([3]; 298.15 K)	refractive index ([3]; 303.15 K)	viscosity ([4]; 288.15 K, 100 kPa)	viscosity ([4]; 293.15 K, 100 kPa)	viscosity ([4]; 298.15 K, 100 kPa)	viscosity ([4]; 303.15 K, 100 kPa)	viscosity ([4]; 308.15 K, 100 kPa)	viscosity ([4]; 313.15 K, 100 kPa)	viscosity ([4]; 318.15 K, 100 kPa)	viscosity ([4]; 323.15 K, 100 kPa)	further results
CCCCO [butan-1-ol] + CCC(C)=O	3.375 ± 0.017	2.945 ± 0.015	2.581 ± 0.014	2.272 ± 0.013	2.008 ± 0.012	1.782 ± 0.011	1.587 ± 0.011	1.419 ± 0.01	–	–	–	–	–	–	–	–	–	–	–	–	mass density ([1]; 288.15 K): 813.373 ± 0.16 kg/m3; mass density ([1]; 293.15 K): 809.573 ± 0.16 kg/m3; mass density ([1]; 298.15 K): 805.762 ± 0.16 kg/m3; mass density ([1]; 303.15 K): 801.923 ± 0.16 kg/m3; mass density ([1]; 308.15 K): 798.053 ± 0.16 kg/m3; mass density ([1]; 313.15 K): 794.147 ± 0.17 kg/m3; mass density ([1]; 318.15 K): 790.231 ± 0.17 kg/m3; mass density ([1]; 323.15 K): 786.238 ± 0.17 kg/m3; refractive index ([2]; 288.15 K): 1.40135 ± 0.00036; refractive index ([2]; 293.15 K): 1.39932 ± 0.00036; refractive index ([2]; 298.15 K): 1.3973 ± 0.00036; refractive index ([2]; 303.15 K): 1.39523 ± 0.00036; refractive index ([2]; 308.15 K): 1.39318 ± 0.00036; refractive index ([2]; 313.15 K): 1.3911 ± 0.00036; refractive index ([2]; 318.15 K): 1.38901 ± 0.00036; refractive index ([2]; 323.15 K): 1.38688 ± 0.00036
CCCCO [butan-1-ol]	–	–	–	–	–	–	–	–	1.40135 ± 0.00036	1.39932 ± 0.00036	1.3973 ± 0.00036	1.39523 ± 0.00036	3.375 ± 0.017 mPa·s	2.945 ± 0.015 mPa·s	2.581 ± 0.014 mPa·s	2.272 ± 0.013 mPa·s	2.008 ± 0.012 mPa·s	1.782 ± 0.011 mPa·s	1.587 ± 0.011 mPa·s	1.419 ± 0.01 mPa·s	refractive index ([3]; 308.15 K): 1.39318 ± 0.00036; refractive index ([3]; 313.15 K): 1.3911 ± 0.00036; refractive index ([3]; 318.15 K): 1.38901 ± 0.00036; refractive index ([3]; 323.15 K): 1.38688 ± 0.00036; mass density ([4]; 288.15 K, 100 kPa): 813.373 ± 0.16 kg/m3; mass density ([4]; 293.15 K, 100 kPa): 809.573 ± 0.16 kg/m3; mass density ([4]; 298.15 K, 100 kPa): 805.762 ± 0.16 kg/m3; mass density ([4]; 303.15 K, 100 kPa): 801.923 ± 0.16 kg/m3; mass density ([4]; 308.15 K, 100 kPa): 798.053 ± 0.16 kg/m3; mass density ([4]; 313.15 K, 100 kPa): 794.147 ± 0.17 kg/m3; mass density ([4]; 318.15 K, 100 kPa): 790.231 ± 0.17 kg/m3; mass density ([4]; 323.15 K, 100 kPa): 786.238 ± 0.17 kg/m3
COC(=O)CCCCC(=O)OC [dimethyl 1,6-hexanedioate]	–	–	–	–	–	–	–	–	–	–	1.4264 ± 0.0004	–	3.751 ± 0.024 mPa·s	3.289 ± 0.022 mPa·s	2.91 ± 0.02 mPa·s	2.604 ± 0.018 mPa·s	2.342 ± 0.017 mPa·s	2.121 ± 0.015 mPa·s	1.933 ± 0.015 mPa·s	1.79 ± 0.014 mPa·s	mass density ([4]; 293.15 K, 101.33 kPa): 1061.93 ± 0.28 kg/m3
CCC(C)=O [butanone]	–	–	–	–	–	–	–	–	1.38153 ± 0.0004	1.37892 ± 0.0004	1.37631 ± 0.0004	1.37366 ± 0.0004	0.4306 ± 0.0077 mPa·s and 0.4306 ± 0.008 mPa·s	0.4136 ± 0.0077 mPa·s and 0.4136 ± 0.0079 mPa·s	0.3962 ± 0.0078 mPa·s and 0.3962 ± 0.0077 mPa·s	0.3793 ± 0.0078 mPa·s and 0.3793 ± 0.0076 mPa·s	0.3626 ± 0.0078 mPa·s and 0.3626 ± 0.0076 mPa·s	0.3461 ± 0.0077 mPa·s and 0.3461 ± 0.0076 mPa·s	0.3303 ± 0.0077 mPa·s and 0.3303 ± 0.0075 mPa·s	0.3168 ± 0.0076 mPa·s and 0.3167 ± 0.0075 mPa·s	refractive index ([3]; 308.15 K): 1.37102 ± 0.0004; refractive index ([3]; 313.15 K): 1.36834 ± 0.0004; refractive index ([3]; 318.15 K): 1.36565 ± 0.0004; refractive index ([3]; 323.15 K): 1.36294 ± 0.0004; mass density ([4]; 288.15 K, 100 kPa): 810.133 ± 0.24 kg/m3; mass density ([4]; 293.15 K, 100 kPa): 804.926 ± 0.24 kg/m3; mass density ([4]; 298.15 K, 100 kPa): 799.695 ± 0.24 kg/m3; mass density ([4]; 303.15 K, 100 kPa): 794.435 ± 0.24 kg/m3; mass density ([4]; 308.15 K, 100 kPa): 789.142 ± 0.24 kg/m3; mass density ([4]; 313.15 K, 100 kPa): 783.814 ± 0.24 kg/m3; mass density ([4]; 318.15 K, 100 kPa): 778.451 ± 0.24 kg/m3; mass density ([4]; 323.15 K, 100 kPa): 773.047 ± 0.24 kg/m3
CCC(C)=O [butanone] + COC(=O)CCCCC(=O)OC	0.4306 ± 0.0077	0.4136 ± 0.0077	0.3962 ± 0.0077	0.3793 ± 0.0076	0.3626 ± 0.0076	0.3461 ± 0.0076	0.3303 ± 0.0075	0.3167 ± 0.0075	–	–	–	–	–	–	–	–	–	–	–	–	–
